Assay results from US8481586B2, “Pyrrolo[2,3-a] carbazoles and use thereof as PIM kinase inhibitors” (Centre National de la Recherche Scientifique, priority 2008, dated 2013).

What was measured:
Assay in all cases: kinase panel residual activity test
Type in all cases: biochemical
Details in all cases: compound at 10 μM
CDK2/cyclin A = CDK2/cyclin A (Homo sapiens (Human), UniProt P24941)
Excerpt: (§1) MKK1, ERK 1, ERK 2, JNK1, JNK2, JNK3, p38a MAPK, p38b MAPK, p38g MAPK, p38s MAPK, ERK8, RSK1, RSK2, PDK1, PKBa, PKBb, SGK1, S6K1, PKA, ROCK2, PRK2, PKCa, PKC zeta, PKD1, MSK1, MNK1, MNK2, MAPKAP-K2, MAPKAP-K3, PRAK, CAMKKa, CAMKKb, CAMK1, SmMLCK, PHK, CHK1, CHK2, GSK3b, CDK2/cyclin A, PLK1, PLK1 (Okadaic acid), Aurora B, Aurora C, AMPK, MARK3, BRSK2, MELK, CK1, CK2, NEK2a, NEK6, NEK7, IKKb, PIM-1, PIM-2, PIM-3, SRPK1, MST2, EF2K, HIPK2, HIPK3, PAK-4, PAK5, PAK6, Src, Lck, CSK.

SmMLCK = system: SmMLCK
Excerpt: as §1

JNK1 = JNK1 (Homo sapiens (Human), UniProt P45983)
Excerpt: as §1

S6K1 = S6K1 (Homo sapiens (Human), UniProt P23443)
Excerpt: as §1

HIPK3 = HIPK3 (Homo sapiens (Human), UniProt Q9H422)
Excerpt: as §1

SGK1 = SGK1 (Homo sapiens (Human), UniProt O00141)
Excerpt: as §1

CAMKKa = CAMKKa (Homo sapiens (Human), UniProt Q8N5S9)
Chain of CAMKKa (Q8N5S9 whole entry, species assumed): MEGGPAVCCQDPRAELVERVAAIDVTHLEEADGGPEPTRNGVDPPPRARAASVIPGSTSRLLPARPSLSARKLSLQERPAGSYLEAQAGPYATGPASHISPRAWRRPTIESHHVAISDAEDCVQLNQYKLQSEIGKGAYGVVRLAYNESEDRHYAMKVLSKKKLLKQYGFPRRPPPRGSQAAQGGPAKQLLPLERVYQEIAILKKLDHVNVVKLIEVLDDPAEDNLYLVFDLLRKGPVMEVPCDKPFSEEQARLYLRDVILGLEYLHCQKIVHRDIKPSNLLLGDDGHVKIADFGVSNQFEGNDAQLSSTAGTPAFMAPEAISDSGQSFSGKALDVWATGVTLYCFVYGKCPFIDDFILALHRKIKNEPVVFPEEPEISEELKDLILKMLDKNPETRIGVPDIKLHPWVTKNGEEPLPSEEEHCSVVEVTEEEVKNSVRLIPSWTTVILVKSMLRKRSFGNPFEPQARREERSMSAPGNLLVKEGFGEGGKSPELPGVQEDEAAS
Excerpt: as §1

MST2 = MST2 (Homo sapiens (Human), UniProt Q13188)
Excerpt: as §1

HIPK2 = HIPK2 (Homo sapiens (Human), UniProt Q9H2X6)
Excerpt: as §1

IKKb = IKKb (Homo sapiens (Human), UniProt O14920)
Excerpt: as §1

CHK1 = CHK1 (Homo sapiens (Human), UniProt O14757)
Chain of CHK1 (O14757 whole entry, species assumed): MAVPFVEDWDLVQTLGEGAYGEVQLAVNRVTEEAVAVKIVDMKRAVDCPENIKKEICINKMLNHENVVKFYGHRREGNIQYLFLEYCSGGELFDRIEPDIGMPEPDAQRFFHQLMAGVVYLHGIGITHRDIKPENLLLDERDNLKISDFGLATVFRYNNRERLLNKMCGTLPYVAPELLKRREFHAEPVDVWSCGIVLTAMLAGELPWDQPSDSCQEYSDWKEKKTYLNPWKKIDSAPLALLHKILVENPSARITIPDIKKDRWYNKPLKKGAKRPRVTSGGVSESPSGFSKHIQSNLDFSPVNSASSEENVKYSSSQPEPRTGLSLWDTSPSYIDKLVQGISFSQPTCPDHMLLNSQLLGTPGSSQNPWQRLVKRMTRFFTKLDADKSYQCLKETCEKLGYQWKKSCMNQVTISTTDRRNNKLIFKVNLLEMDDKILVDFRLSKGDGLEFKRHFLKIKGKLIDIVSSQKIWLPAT
Excerpt: as §1

p38s MAPK = p38s MAPK (Homo sapiens (Human), UniProt O15264)
Excerpt: as §1

PKA = PKA (Homo sapiens (Human), UniProt P17612)
Excerpt: as §1

MELK = MELK (Homo sapiens (Human), UniProt Q14680)
Excerpt: as §1

SRPK1 = SRPK1 (Homo sapiens (Human), UniProt Q96SB4)
Excerpt: as §1

PHK = system: PHK
Excerpt: as §1

MARK3 = MARK3 (Homo sapiens (Human), UniProt P27448)
Chain of MARK3 (P27448 whole entry, species assumed): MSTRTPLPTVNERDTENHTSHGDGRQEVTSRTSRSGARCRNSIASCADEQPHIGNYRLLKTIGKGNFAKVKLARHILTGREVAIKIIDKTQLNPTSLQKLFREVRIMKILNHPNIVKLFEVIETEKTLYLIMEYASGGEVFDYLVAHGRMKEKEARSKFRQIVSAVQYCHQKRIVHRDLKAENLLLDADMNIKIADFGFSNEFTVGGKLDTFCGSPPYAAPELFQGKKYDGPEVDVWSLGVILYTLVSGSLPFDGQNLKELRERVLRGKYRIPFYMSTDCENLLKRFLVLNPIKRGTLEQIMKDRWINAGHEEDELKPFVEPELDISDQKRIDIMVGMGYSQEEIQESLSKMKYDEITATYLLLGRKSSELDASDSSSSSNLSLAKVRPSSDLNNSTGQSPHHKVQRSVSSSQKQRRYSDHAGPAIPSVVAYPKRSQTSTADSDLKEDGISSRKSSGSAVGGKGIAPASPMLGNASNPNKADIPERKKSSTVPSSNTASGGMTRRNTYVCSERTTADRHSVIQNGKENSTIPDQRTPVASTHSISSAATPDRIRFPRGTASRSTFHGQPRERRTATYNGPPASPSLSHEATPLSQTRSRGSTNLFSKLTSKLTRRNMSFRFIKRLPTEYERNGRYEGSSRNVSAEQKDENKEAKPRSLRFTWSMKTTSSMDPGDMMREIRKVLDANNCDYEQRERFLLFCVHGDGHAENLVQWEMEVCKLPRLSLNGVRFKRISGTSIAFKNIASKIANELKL
Excerpt: as §1

PKD1 = PKD1 (Homo sapiens (Human), UniProt Q15139)
Excerpt: as §1

MNK2 = MNK2 (Homo sapiens (Human), UniProt Q9HBH9)
Excerpt: as §1

NEK6 = NEK6 (Homo sapiens (Human), UniProt Q9HC98)
Chain of NEK6 (Q9HC98 whole entry, species assumed): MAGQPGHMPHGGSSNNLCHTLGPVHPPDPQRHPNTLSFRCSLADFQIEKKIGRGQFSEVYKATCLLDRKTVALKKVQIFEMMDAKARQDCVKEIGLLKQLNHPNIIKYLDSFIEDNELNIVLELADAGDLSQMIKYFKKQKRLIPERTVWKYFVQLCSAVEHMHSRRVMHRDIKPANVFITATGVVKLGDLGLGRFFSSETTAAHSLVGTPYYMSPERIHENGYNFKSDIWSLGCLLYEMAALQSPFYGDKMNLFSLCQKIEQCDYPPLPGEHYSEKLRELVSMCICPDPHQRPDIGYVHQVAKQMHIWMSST
Excerpt: as §1

PKCa = PKCa (Homo sapiens (Human), UniProt P17252)
Excerpt: as §1

JNK2 = JNK2 (Homo sapiens (Human), UniProt P45984)
Excerpt: as §1

PRAK = PRAK (Homo sapiens (Human), UniProt Q8IW41)
Excerpt: as §1

Src = Src (Homo sapiens (Human), UniProt P12931)
Excerpt: as §1

PKBb = PKBb (Homo sapiens (Human), UniProt P31751)
Excerpt: as §1

RSK2 = RSK2 (Homo sapiens (Human), UniProt P51812)
Excerpt: as §1

PRK2 = PRK2 (Homo sapiens (Human), UniProt Q16513)
Chain of PRK2 (Q16513 whole entry, species assumed): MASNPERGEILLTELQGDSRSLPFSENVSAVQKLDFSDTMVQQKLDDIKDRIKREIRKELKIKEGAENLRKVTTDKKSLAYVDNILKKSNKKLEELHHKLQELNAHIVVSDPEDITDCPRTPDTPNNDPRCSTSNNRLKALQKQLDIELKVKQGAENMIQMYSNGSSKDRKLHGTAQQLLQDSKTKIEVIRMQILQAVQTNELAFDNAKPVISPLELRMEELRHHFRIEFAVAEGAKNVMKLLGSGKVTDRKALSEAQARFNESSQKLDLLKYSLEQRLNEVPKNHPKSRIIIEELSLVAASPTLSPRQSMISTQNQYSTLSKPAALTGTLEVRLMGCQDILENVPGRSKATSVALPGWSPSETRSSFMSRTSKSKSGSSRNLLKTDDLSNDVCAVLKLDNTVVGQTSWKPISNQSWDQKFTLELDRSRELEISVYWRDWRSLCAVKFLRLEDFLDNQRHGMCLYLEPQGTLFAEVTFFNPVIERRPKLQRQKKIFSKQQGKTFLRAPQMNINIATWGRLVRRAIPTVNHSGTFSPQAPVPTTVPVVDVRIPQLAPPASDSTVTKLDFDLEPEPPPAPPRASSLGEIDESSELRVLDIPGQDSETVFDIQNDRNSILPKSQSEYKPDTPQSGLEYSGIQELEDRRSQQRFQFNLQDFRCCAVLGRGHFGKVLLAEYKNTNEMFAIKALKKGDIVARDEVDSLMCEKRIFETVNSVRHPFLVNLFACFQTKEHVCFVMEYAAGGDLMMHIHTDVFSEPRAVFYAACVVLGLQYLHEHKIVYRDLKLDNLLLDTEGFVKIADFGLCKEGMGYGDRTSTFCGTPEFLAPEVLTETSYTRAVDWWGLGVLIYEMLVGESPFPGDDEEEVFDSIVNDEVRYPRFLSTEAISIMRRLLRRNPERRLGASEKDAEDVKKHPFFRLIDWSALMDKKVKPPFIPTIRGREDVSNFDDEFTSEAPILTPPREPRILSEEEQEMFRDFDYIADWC
Excerpt: as §1

Aurora C = Aurora C (Homo sapiens (Human), UniProt Q9UQB9)
Chain of Aurora C (Q9UQB9 whole entry): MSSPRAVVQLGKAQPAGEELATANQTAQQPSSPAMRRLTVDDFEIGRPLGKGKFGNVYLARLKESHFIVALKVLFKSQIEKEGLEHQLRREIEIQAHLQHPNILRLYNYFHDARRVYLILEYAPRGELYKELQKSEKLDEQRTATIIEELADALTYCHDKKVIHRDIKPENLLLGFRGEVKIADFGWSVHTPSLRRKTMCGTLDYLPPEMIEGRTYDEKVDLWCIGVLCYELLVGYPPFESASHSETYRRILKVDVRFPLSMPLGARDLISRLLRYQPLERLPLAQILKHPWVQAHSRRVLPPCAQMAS
Excerpt: as §1

MAPKAP-K2 = MAPKAP-K2 (Homo sapiens (Human), UniProt P49137)
Excerpt: as §1

p38a MAPK = p38a MAPK (Homo sapiens (Human), UniProt Q16539)
Excerpt: as §1

CHK2 = CHK2 (Homo sapiens (Human), UniProt O96017)
Excerpt: as §1

ERK8 = ERK8 (Homo sapiens (Human), UniProt Q8TD08)
Chain of ERK8 (Q8TD08 whole entry, species assumed): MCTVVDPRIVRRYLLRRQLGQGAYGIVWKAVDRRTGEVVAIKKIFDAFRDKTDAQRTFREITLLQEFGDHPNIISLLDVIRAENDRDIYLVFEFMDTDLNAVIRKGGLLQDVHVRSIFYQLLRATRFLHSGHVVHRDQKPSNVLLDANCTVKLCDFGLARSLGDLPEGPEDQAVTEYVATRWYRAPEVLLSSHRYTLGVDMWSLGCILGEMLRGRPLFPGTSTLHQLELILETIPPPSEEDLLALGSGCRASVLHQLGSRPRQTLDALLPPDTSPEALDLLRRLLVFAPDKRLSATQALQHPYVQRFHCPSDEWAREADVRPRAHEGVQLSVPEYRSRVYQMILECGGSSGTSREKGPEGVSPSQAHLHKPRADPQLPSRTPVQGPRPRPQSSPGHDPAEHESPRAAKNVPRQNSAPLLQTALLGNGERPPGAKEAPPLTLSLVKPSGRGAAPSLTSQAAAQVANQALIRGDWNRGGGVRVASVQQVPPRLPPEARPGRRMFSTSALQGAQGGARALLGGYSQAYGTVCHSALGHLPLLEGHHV
Excerpt: as §1

NEK2a = NEK2a (Homo sapiens (Human), UniProt P51955)
Chain of NEK2a (P51955 whole entry, species assumed): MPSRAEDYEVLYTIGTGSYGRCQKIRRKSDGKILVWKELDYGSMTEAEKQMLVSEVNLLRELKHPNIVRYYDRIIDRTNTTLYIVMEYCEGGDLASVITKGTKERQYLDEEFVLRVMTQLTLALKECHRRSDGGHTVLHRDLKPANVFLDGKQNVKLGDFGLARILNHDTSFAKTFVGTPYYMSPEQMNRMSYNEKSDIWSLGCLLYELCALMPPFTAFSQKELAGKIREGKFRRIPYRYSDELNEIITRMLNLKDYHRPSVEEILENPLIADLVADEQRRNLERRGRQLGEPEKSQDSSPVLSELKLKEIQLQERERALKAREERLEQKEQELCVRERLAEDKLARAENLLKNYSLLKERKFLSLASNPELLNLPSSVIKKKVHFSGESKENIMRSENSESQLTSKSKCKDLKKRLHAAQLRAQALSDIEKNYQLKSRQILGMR
Excerpt: as §1

PKBa = PKBa (Homo sapiens (Human), UniProt P31749)
Excerpt: as §1

ERK1 = ERK1 (Homo sapiens (Human), UniProt P27361)
Excerpt: as §1

JNK3 = JNK3 (Homo sapiens (Human), UniProt P53779)
Excerpt: as §1

AMPK = system: AMPK
Excerpt: as §1

MSK1 = MSK1 (Homo sapiens (Human), UniProt O75582)
Excerpt: as §1

c1ccc2c(c1)[nH]c1c2ccc2cc[nH]c21 [Example 2, 1,10-dihydropyrrolo[2,3-a]carbazole]
remaining activity at 10 µM (CDK2/cyclin A): 97%
% residual activity SmMLCK (SmMLCK): 86%
remaining activity at 10 µM (JNK1): 102%
remaining activity at 10 µM (S6K1): 89%
remaining activity at 10 µM (HIPK3): 97%
remaining activity at 10 µM (SGK1): 82%
remaining activity at 10 µM (CAMKKa): 76%
remaining activity at 10 µM (MST2): 82%
remaining activity at 10 µM (HIPK2): 59%
remaining activity at 10 µM (IKKb): 106%
remaining activity at 10 µM (CHK1): 123%
remaining activity at 10 µM (p38s MAPK): 78%
remaining activity at 10 µM (PKA): 95%
remaining activity at 10 µM (MELK): 93%
remaining activity at 10 µM (SRPK1): 90%
% residual activity PHK (PHK): 90%
remaining activity at 10 µM (MARK3): 116%
remaining activity at 10 µM (PKD1): 83%
remaining activity at 10 µM (MNK2): 95%
remaining activity at 10 µM (NEK6): 90%
remaining activity at 10 µM (PKCa): 111%
remaining activity at 10 µM (JNK2): 118%
remaining activity at 10 µM (PRAK): 97%
remaining activity at 10 µM (Src): 98%
remaining activity at 10 µM (PKBb): 107%
remaining activity at 10 µM (RSK2): 129%
remaining activity at 10 µM (PRK2): 95%
remaining activity at 10 µM (Aurora C): 85%
remaining activity at 10 µM (MAPKAP-K2): 118%
remaining activity at 10 µM (p38a MAPK): 108%
remaining activity at 10 µM (CHK2): 58%
remaining activity at 10 µM (ERK8): 55%
remaining activity at 10 µM (NEK2a): 104%
remaining activity at 10 µM (PKBa): 120%
remaining activity at 10 µM (ERK1): 108%
remaining activity at 10 µM (JNK3): 108%
% residual activity AMPK (AMPK): 80%
remaining activity at 10 µM (MSK1): 90%

NC(=O)c1c[nH]c2c1ccc1c3ccccc3[nH]c12 [Example 5, 1,10-dihydropyrrolo[2,3-a]carbazole-3-carboxamide]
remaining activity at 10 µM (CDK2/cyclin A): 53%
% residual activity SmMLCK (SmMLCK): 69%
remaining activity at 10 µM (JNK1): 106%
remaining activity at 10 µM (S6K1): 72%
remaining activity at 10 µM (HIPK3): 87%
remaining activity at 10 µM (SGK1): 71%
remaining activity at 10 µM (CAMKKa): 75%
remaining activity at 10 µM (MST2): 76%
remaining activity at 10 µM (HIPK2): 42%
remaining activity at 10 µM (IKKb): 80%
remaining activity at 10 µM (CHK1): 113%
remaining activity at 10 µM (p38s MAPK): 76%
remaining activity at 10 µM (PKA): 80%
remaining activity at 10 µM (MELK): 80%
remaining activity at 10 µM (SRPK1): 93%
% residual activity PHK (PHK): 43%
remaining activity at 10 µM (MARK3): 73%
remaining activity at 10 µM (PKD1): 19%
remaining activity at 10 µM (MNK2): 57%
remaining activity at 10 µM (NEK6): 83%
remaining activity at 10 µM (PKCa): 80%
remaining activity at 10 µM (JNK2): 115%
remaining activity at 10 µM (PRAK): 85%
remaining activity at 10 µM (Src): 96%
remaining activity at 10 µM (PKBb): 103%
remaining activity at 10 µM (RSK2): 97%
remaining activity at 10 µM (PRK2): 54%
remaining activity at 10 µM (Aurora C): 61%
remaining activity at 10 µM (MAPKAP-K2): 92%
remaining activity at 10 µM (p38a MAPK): 96%
remaining activity at 10 µM (CHK2): 44%
remaining activity at 10 µM (ERK8): 46%
remaining activity at 10 µM (NEK2a): 106%
remaining activity at 10 µM (PKBa): 97%
remaining activity at 10 µM (ERK1): 71%
remaining activity at 10 µM (JNK3): 104%
% residual activity AMPK (AMPK): 85%
remaining activity at 10 µM (MSK1): 91%

O=Cc1c[nH]c2c1ccc1c3ccccc3[nH]c12 [Example 3, 1,10-dihydropyrrolo[2,3-a]carbazole-3-carbaldehyde]
remaining activity at 10 µM (CDK2/cyclin A): 74%
% residual activity SmMLCK (SmMLCK): 60%
remaining activity at 10 µM (JNK1): 102%
remaining activity at 10 µM (S6K1): 38%
remaining activity at 10 µM (HIPK3): 64%
remaining activity at 10 µM (SGK1): 64%
remaining activity at 10 µM (CAMKKa): 42%
remaining activity at 10 µM (MST2): 63%
remaining activity at 10 µM (HIPK2): 25%
remaining activity at 10 µM (IKKb): 71%
remaining activity at 10 µM (CHK1): 97%
remaining activity at 10 µM (p38s MAPK): 92%
remaining activity at 10 µM (PKA): 60%
remaining activity at 10 µM (MELK): 61%
remaining activity at 10 µM (SRPK1): 84%
% residual activity PHK (PHK): 33%
remaining activity at 10 µM (MARK3): 88%
remaining activity at 10 µM (PKD1): 28%
remaining activity at 10 µM (MNK2): 55%
remaining activity at 10 µM (NEK6): 78%
remaining activity at 10 µM (PKCa): 84%
remaining activity at 10 µM (JNK2): 128%
remaining activity at 10 µM (PRAK): 72%
remaining activity at 10 µM (Src): 85%
remaining activity at 10 µM (PKBb): 98%
remaining activity at 10 µM (RSK2): 124%
remaining activity at 10 µM (PRK2): 31%
remaining activity at 10 µM (Aurora C): 79%
remaining activity at 10 µM (MAPKAP-K2): 84%
remaining activity at 10 µM (p38a MAPK): 102%
remaining activity at 10 µM (CHK2): 38%
remaining activity at 10 µM (ERK8): 20%
remaining activity at 10 µM (NEK2a): 88%
remaining activity at 10 µM (PKBa): 96%
remaining activity at 10 µM (ERK1): 87%
remaining activity at 10 µM (JNK3): 113%
% residual activity AMPK (AMPK): 59%
remaining activity at 10 µM (MSK1): 71%
